Patent publication EP0129947A2, “Contraceptive compositions based on esters of levo-norgestrel” (priority 1983, dated 1985)

Legend:
[1] = tested on: female rats; test: estrus suppression assay (duration of suppression of vaginal cornification after one subcutaneous injection); format: in vivo, rats of the Sprague-Dawley strain; conditions: for effect of formulation on results: aqueous microcrystalline suspension of particle size 3 to 10µ (50% cumulative oversize, Coulter); for durations of suppression: aqueous microcrystalline suspension, subcutaneous; for suppression of estrus compared with DMPA at 16 mg/rat: ester at 8 mg/rat, aqueous microcrystalline suspension (Figure 1); for duration of action in words: cyclic esters of the series of Table 1 and Fig. 1
Method: These were subjected to a biological screening programme designed to uncover new and effective sustained- release injectable contraceptives, the compounds being tested as injectable oily solutions or aqueous suspensions. The initial test was to determine the duration of suppression of estrus in female rats, with DMPA and norethisterone enanthate being used as comparison-standards. The most promising compounds were then tested in primates.
The bioassay used to determine the duration of action of the contraceptive compositions involved measuring the suppression of estrus in female rats. The compositions were used at four dosage levels, i.e. 2, 4, 8 and 16 mg/rat.
The long-acting properties of each formulation were determined in estrus suppression assay employing virgin, mature (180-200 g) cycling rats of the Sprague-Dawley strain purchased from Charles River Laboratories, USA. Upon receipt the animals were smeared daily for cyclicity and only those animals showing two consecutive normal cycles were used. Each animal was injected subcutaneously with 0.8 ml of the test preparation on the same day regardless of the stage of the cycle. Each compound was initially tested on ten rats. A series of initial tests with injections of 16 mg/animal were followed by studies at dose levels of 8, 4 and 2 mg/animal where necessary. An aqueous microcrystalline suspension of medroxyprogesterone acetate was used as standard. Daily smears were taken starting on the day after injection and continued until such time that cornification of vaginal epithelium was observed and cycling was re-established. Duration of cornification suppression is expressed as the total number of days minus two. The appearance of cornification was not always followed by the return of normal estrus cycles.

[2] = pharmacokinetics in the monkey (circulating levo norgestrel after injection); conditions: monkey Macaca mulata
[3] = 8 mg/rat, majority of experiments terminated at 91 days post injection

Question: For `C#C[C@]1(OC(=O)C2CCCC2)CC[C@H]2[C@@H]3CCC4=CC(=NO)CC[C@@H]4[C@H]3CC[C@@]21CC` [levo-norgestrel cyclopentylcarboxylate 3-oxime], which “effect of formulation on results” value [1] is on record?
Answer: Its value is “better results”.

Question: For `CC(=O)O[C@]1(C(C)=O)CC[C@H]2[C@@H]3C[C@H](C)C4=CC(=O)CC[C@]4(C)[C@H]3CC[C@@]21C` [DMPA, medroxyprogesterone acetate, reference compound], which durations of suppression ([1]; 2 mg/rat) is on record?
Answer: Its durations of suppression is 20.9 days.

Question: And the durations of suppression ([1]; 4 mg/rat)?
Answer: Its durations of suppression is 28.2 days.

Question: What about the durations of suppression [1, 3] of the same molecule?
Answer: Its durations of suppression is 55.5 days.

Question: And the durations of suppression ([1]; 16 mg/rat)?
Answer: The durations of suppression was 60.0 days.

Question: What about the average suppression duration ([1]; microcrystalline suspension, rat, dose not given) of the same molecule?
Answer: Its average suppression duration is 63.7 days.

Question: Which results are given for `C#C[C@]1(OC(=O)CCC)CC[C@H]2[C@@H]3CCC4=CC(=O)CC[C@@H]4[C@H]3CC[C@@]21CC` [levo-norgestrel butanoate]?
Answer: durations of suppression ([1]; 2 mg/rat): 34.4 days; durations of suppression ([1]; 4 mg/rat): 65.1 days; durations of suppression [1, 3]: < 91 days; suppression of estrus compared with DMPA at 16 mg/rat [1]: better suppression than DMPA at a dosage of 16 mg/rat

Question: Which results are given for `C#C[C@]1(OC(=O)C2CC2)CC[C@H]2[C@@H]3CCC4=CC(=O)CC[C@@H]4[C@H]3CC[C@@]21CC` [levo-norgestrel cyclopropylcarboxylate]?
Answer: durations of suppression ([1]; 4 mg/rat): 55.6 days; durations of suppression [1, 3]: 74.0 days; duration of action in words [1]: long-acting; suppression of estrus compared with DMPA at 16 mg/rat [1]: better suppression than DMPA at a dosage of 16 mg/rat

Question: For “norethisterone enanthate [reference compound]”, which average duration ([1]; oily solution, rat, dose not given) is on record?
Answer: The average duration was 23.1 days.

Question: With `C#C[C@]1(OC(=O)C2CCCCC2)CC[C@H]2[C@@H]3CCC4=CC(=NO)CC[C@@H]4[C@H]3CC[C@@]21CC` [levo-norgestrel cyclohexylcarboxylate 3-oxime] as the molecule, how does the “effect of formulation on results” value [1] read?
Answer: The value was “better results”.

Question: With `C#C[C@]1(OC(=O)C2CCCC2)CC[C@H]2[C@@H]3CCC4=CC(=O)CC[C@@H]4[C@H]3CC[C@@]21CC` [cyclopentylcarboxylate, Levo-norgestrel 17β-cyclopentyl carboxylate, reference compound] as the molecule, how does the effectiveness in words ([1]; 16 mg dose) read?
Answer: Its effectiveness in words is “relatively ineffective”.

Question: What about the “duration of action in words” value [1] of the same molecule?
Answer: The value was “short acting”.

Question: With `C#C[C@]1(OC(=O)C2CCC2)CC[C@H]2[C@@H]3CCC4=CC(=O)CC[C@@H]4[C@H]3CC[C@@]21CC` [levo-norgestrel cyclobutylcarboxylate] as the molecule, how does the durations of suppression ([1]; 2 mg/rat) read?
Answer: The durations of suppression was 31.9 days.

Question: And the durations of suppression ([1]; 4 mg/rat)?
Answer: Its durations of suppression is 55.7 days.

Question: And the durations of suppression [1, 3]?
Answer: The durations of suppression was 89.2 days.

Question: And the durations of suppression ([1]; 16 mg/rat)?
Answer: Its durations of suppression is over 91 days.

Question: What about the “effect of formulation on return to estrus” value ([1]; Figure II: aqueous microcrystalline suspension 3 to 10µ versus solution in sesame oil or in ethyl oleate, groups of ten rats) of the same molecule?
Answer: The value was “longer term effect of the ester when micro-dispersed in aqueous medium”.

Question: And the “duration of action in words” value [1]?
Answer: Its value is “long-acting”.

Question: And the “suppression of estrus compared with DMPA at 16 mg/rat” value ([1]; listed as cyclobutyl carboxylate)?
Answer: Its value is “better suppression than DMPA at a dosage of 16 mg/rat”.

Question: What about the “suppression of estrus compared with DMPA at 16 mg/rat” value ([1]; listed as cyclobutylcarboxylate) of the same molecule?
Answer: The value was “the same inhibition as DMPA at 16 mg”.

Question: What about the “activity relative to the aqueous suspension” value ([1]; microcrystalline suspension in ethyl oleate (Table 11)) of the same molecule?
Answer: Its value is “approximately 40%”.

Question: And the activity by formulation ([1]; solution in a 50:50 mixture of ethyl oleate and benzyl benzoate (BB), compared with the suspensions)?
Answer: Its activity by formulation is “Further reduction in activity”.

Question: What about the “time during which measurable levels of levo norgestrel are still present in the circulation after injection” value [2] of the same molecule?
Answer: Its value is over 100 days.
